Assay results from patent US20260315611A1, “LINKER COMPOUNDS AND LIGAND-DRUG CONJUGATES, PREPARATION METHODS AND USES THEREOF” (Biocytogen Pharmaceuticals (Beijing) Co., Ltd., priority 2023, published 2026).

Legend:
A431 cells = assay: anti-tumor activity in A431 xenograft model; format: in vivo, A431 xenograft in B-NDG mice; conditions: 10 mg/kg i.v. BIW x4
Protocol: (§1) The lengths of the long axis and the short axis of the tumor were measured and the volume of the tumor was calculated as 0.5×(long axis)×(short axis)2. […] Ti is the average tumor volume in the treatment group on day i. T0 is the average tumor volume in the treatment group on day zero. Vi is the average tumor volume in the control group on day i. V0 is the average tumor volume in the control group on day zero. T-test was performed for statistical analysis. […] P<0.05 is a threshold to indicate significant difference. The body weights of the mice were also measured throughout the entire administration period.
The ADCs were tested for their effects on tumor growth in vivo in a xenograft model of epidermoid carcinoma. Specifically, about 1×10^6 A431 cells were injected subcutaneously in B-NDG mice. When the tumors in the mice reached a volume of about 200 mm^3, the mice were randomly placed into different groups based on tumor volume. The mice were then injected with PBS, antibody, or ADCs by intravenous (i.v.) administration.

NCI-H292 cells = assay: anti-tumor activity in NCI-H292 xenograft model; format: in vivo, NCI-H292 xenograft in B-NDG mice; conditions: 10 mg/kg i.v. BIW x2
Protocol: as §1
The antibody or ADCs were tested for their effects on tumor growth in vivo in a xenograft model of lung cancer. Specifically, about 5×10^6 NCI-H292 cells were injected subcutaneously in B-NDG mice. When the tumors in the mice reached a volume of about 300 mm^3, the mice were randomly placed into different groups based on tumor volume. The mice were then injected with PBS, antibody, or ADCs by intravenous (i.v.) administration.

Hela = assay: in vitro killing activity; format: cell-based, Human; conditions: 120 h incubation
Protocol: (§2) Different concentrations of compounds CPT-1, CPT-2, CPT-3, CPT-4, Dxd (MedChem Express, Cat #: HY-13631D) and SN38 (MedChem Express, Cat #: HY-13704) were used to treat different human tumor cell lines, mice tumor cell lines, rat tumor cell lines or dog tumor cell lines cultured in a cell culture plate, respectively. And the killing activity was detected after 72 h-120 h incubation by IncuCyte (Sartorius AG, IncuCyte® S3) or MicroplateReader.

HuH-7 = assay: in vitro killing activity; format: cell-based, Human; conditions: 120 h incubation
Protocol: as §2

LOVO = assay: in vitro killing activity; format: cell-based, Human; conditions: 120 h incubation
Protocol: as §2

NCI-H1975 = assay: in vitro killing activity; format: cell-based, Human; conditions: 120 time of incubation
Protocol: as §2

NCI-H226 = assay: in vitro killing activity; format: cell-based, Human; conditions: 120 h incubation
Protocol: as §2

NCI-N87 = assay: in vitro killing activity; format: cell-based, Human; conditions: 120 time of incubation
Protocol: as §2

SW620 = assay: in vitro killing activity; format: cell-based, Human; conditions: 120 h incubation
Protocol: as §2

L6 = assay: in vitro killing activity; format: cell-based, Rat; conditions: 120 h incubation
Protocol: as §2

PC12 = assay: in vitro killing activity; format: cell-based, Rat; conditions: 120 time of incubation
Protocol: as §2

Pgp = conditions: cited from earlier work
A-431 = assay: in vitro killing activity; format: cell-based, Human; conditions: Homo sapiens, A-431; 120 time of incubation
Protocol: as §2

BT474 = assay: in vitro killing activity; format: cell-based, Human; conditions: Homo sapiens, BT-474; 120 time of incubation
Protocol: as §2

BxPC-3 = assay: in vitro killing activity; format: cell-based, Human; conditions: Homo sapiens, BXPC-3; 120 time of incubation
Protocol: as §2

HCC1954 = assay: in vitro killing activity; format: cell-based, Human; conditions: Homo sapiens, HCC1954; 120 time of incubation
Protocol: as §2

HS-746T = assay: in vitro killing activity; format: cell-based, Human; conditions: Homo sapiens, Hs746T; 120 time of incubation
Protocol: as §2

NCI-H1781 = assay: in vitro killing activity; format: cell-based, Human; conditions: Homo sapiens, NCI-H1781; 120 time of incubation
Protocol: as §2

NCI-H2030 = assay: in vitro killing activity; format: cell-based, Human; conditions: Homo sapiens, NCI-H2030; 120 time of incubation
Protocol: as §2

NCI-H69 = assay: in vitro killing activity; format: cell-based, Human; conditions: Homo sapiens, NCI-H69; 120 time of incubation
Protocol: as §2

OVKATE = assay: in vitro killing activity; format: cell-based, Human; conditions: Homo sapiens; 120 time of incubation
Protocol: as §2

PC-3 = assay: in vitro killing activity; format: cell-based, Human; conditions: Homo sapiens, PC-3; 120 time of incubation
Protocol: as §2

Panc 02.03 = assay: in vitro killing activity; format: cell-based, Human; conditions: Homo sapiens, Panc 02.03; 120 time of incubation
Protocol: as §2

SKOV-3 = assay: in vitro killing activity; format: cell-based, Human; conditions: Homo sapiens, SK-OV-3; 120 time of incubation
Protocol: as §2

SW156 = assay: in vitro killing activity; format: cell-based, Human; conditions: Homo sapiens; 120 time of incubation
Protocol: as §2

U-2-OS = assay: in vitro killing activity; format: cell-based, Human; conditions: Homo sapiens, U2OS; 120 time of incubation
Protocol: as §2

CMT-U27 = assay: in vitro killing activity; format: cell-based, Dog; conditions: Canis lupus familiaris; 120 time of incubation
Protocol: as §2

D17 = assay: in vitro killing activity; format: cell-based, Dog; conditions: Canis lupus familiaris, D17; 120 time of incubation
Protocol: as §2

DCOL1 (S+L−) = assay: in vitro killing activity; format: cell-based, Dog; conditions: Canis lupus familiaris; 120 time of incubation
Protocol: as §2

MP-0094-2 = assay: in vitro killing activity; format: cell-based, Dog; conditions: Canis lupus familiaris; 120 time of incubation
Protocol: as §2

MP-0094-3 = assay: in vitro killing activity; format: cell-based, Dog; conditions: Canis lupus familiaris; 120 time of incubation
Protocol: as §2

MP-1044-1 = assay: in vitro killing activity; format: cell-based, Dog; conditions: Canis lupus familiaris; 72 time of incubation
Protocol: as §2

MP-1092-1 = assay: in vitro killing activity; format: cell-based, Dog; conditions: Canis lupus familiaris; 120 time of incubation
Protocol: as §2

B16F10 = assay: in vitro killing activity; format: cell-based, Mice; conditions: Mus musculus, B16-F10; 75 time of incubation
Protocol: as §2

CT26 = assay: in vitro killing activity; format: cell-based, Mice; conditions: Mus musculus, CT26; 96 time of incubation
Protocol: as §2

MC38 = assay: in vitro killing activity; format: cell-based, Mice; conditions: Mus musculus, MC-38; 120 time of incubation
Protocol: as §2

multiple cell lines = assay: in vitro killing activity, multiple tumor cell lines; format: cell-based, human, mice, rat, dog
Protocol: as §2

Sacituzumab govitecan: humanized anti-TROP2 monoclonal antibody-drug conjugate from Immunomedics, Inc
Tumor volume Day 17 (A431 cells): 682 ± 71 mm^3 | Tumor volume Day 31 (A431 cells): 1554 ± 144 mm^3 | Tumor volume Day 0 (A431 cells; day of grouping (baseline)): 197 ± 6 mm^3 | Tumor volume Day 21 (NCI-H292 cells): 428 ± 51 mm^3 | Tumor volume Day 39 (NCI-H292 cells): 893 ± 62 mm^3 | Tumor volume Day 0 (NCI-H292 cells; day of grouping (baseline)): 297 ± 11 mm^3

CCc1c2c(nc3ccc(O)cc13)-c1cc3c(c(=O)n1C2)COC(=O)[C@]3(O)CC [SN38, reference compound]
IC50 (Hela): 6.61 nM | IC50 (HuH-7): 2.41 nM | IC50 (LOVO): 10.2 nM | IC50 (NCI-H1975): 13.2 nM | IC50 (NCI-H226): 20.4 nM | IC50 (NCI-N87): 7.39 nM | IC50 (SW620): 4.6 nM | IC50 (L6): 20.8 nM | IC50 (PC12): 5.66 nM | Pgp substrate (Pgp): Pgp substrates

CC[C@@]1(O)C(=O)OCc2c1cc1n(c2=O)Cc2c-1nc1ccc(N)c3c1c2CCS3 [CPT-1]
IC50 (A-431): 2.97 nM | IC50 (BT474): 6.22 nM | IC50 (BxPC-3): 0.213 nM | IC50 (HCC1954): 1.31 nM | IC50 (HS-746T): 0.523 nM | IC50 (Hela; Homo sapiens, HeLa): 1.03 nM | IC50 (HuH-7; Homo sapiens, Huh-7): 0.742 nM | IC50 (LOVO; Homo sapiens, LoVo): 1.52 nM | IC50 (NCI-H1781): 0.297 nM | IC50 (NCI-H1975; Homo sapiens, NCI-H1975): 1.71 nM | IC50 (NCI-H2030): 1.1 nM | IC50 (NCI-H226; Homo sapiens, NCI-H226): 2.37 nM | IC50 (NCI-H69): 0.299 nM | IC50 (NCI-N87; Homo sapiens, NCI-N87): 1.2 nM | IC50 (OVKATE): 2.24 nM | IC50 (PC-3): 0.859 nM | IC50 (Panc 02.03): 0.266 nM | IC50 (SKOV-3): 1.8 nM | IC50 (SW156): 0.373 nM | IC50 (SW620; Homo sapiens, SW-620): 0.75 nM | IC50 (U-2-OS): 2.65 nM | IC50 (CMT-U27): 0.937 nM | IC50 (D17): 0.841 nM | IC50 (DCOL1 (S+L−)): 1.33 nM | IC50 (MP-0094-2): 2.69 nM | IC50 (MP-0094-3): 3.92 nM | IC50 (MP-1044-1): 8.63 nM | IC50 (MP-1092-1): 0.988 nM | IC50 (B16F10): 3.29 nM | IC50 (CT26): 3.84 nM | IC50 (MC38): 6.72 nM | IC50 (L6; Rattus norvegicus, L6): 3.69 nM | IC50 (PC12; Rattus norvegicus, PC-12): 1.67 nM | in vitro killing activity (multiple cell lines): good in vitro killing activity | tumor cell inhibition effect compared with Dxd and SN38 (multiple cell lines): higher tumor cell inhibition effect than Dxd and SN38

CC[C@@]1(O)C(=O)OCc2c1cc1n(c2=O)Cc2c-1nc1ccc(N)c3c1c2CCO3 [CPT-2, (S)-4-amino-9-ethyl-9-hydroxy-1,9,12,15-tetrahydro-13H-pyrano[4,3,2-de]pyrano[3′,4′:6,7]indolizino[1,2-b]quinoline-10,13(2H)-dione]
IC50 (A-431): 2.84 nM | IC50 (BT474): 11.9 nM | IC50 (BxPC-3): 0.289 nM | IC50 (HCC1954): 1.14 nM | IC50 (HS-746T): 0.55 nM | IC50 (Hela; Homo sapiens, HeLa): 1.41 nM | IC50 (HuH-7; Homo sapiens, Huh-7): 0.662 nM | IC50 (LOVO; Homo sapiens, LoVo): 1.15 nM | IC50 (NCI-H1781): 0.399 nM | IC50 (NCI-H1975; Homo sapiens, NCI-H1975): 1.97 nM | IC50 (NCI-H2030): 1.31 nM | IC50 (NCI-H226; Homo sapiens, NCI-H226): 2.77 nM | IC50 (NCI-H69): 0.318 nM | IC50 (NCI-N87; Homo sapiens, NCI-N87): 1.48 nM | IC50 (OVKATE): 2.04 nM | IC50 (PC-3): 1.97 nM | IC50 (Panc 02.03): 0.301 nM | IC50 (SKOV-3): 1.96 nM | IC50 (SW156): 0.615 nM | IC50 (SW620; Homo sapiens, SW-620): 0.824 nM | IC50 (U-2-OS): 1.41 nM | IC50 (CMT-U27): 1.28 nM | IC50 (D17): 1.29 nM | IC50 (DCOL1 (S+L−)): 2.29 nM | IC50 (MP-0094-2): 4.69 nM | IC50 (MP-0094-3): 7.15 nM | IC50 (MP-1044-1): 8.53 nM | IC50 (MP-1092-1): 1.75 nM | IC50 (B16F10): 5.47 nM | IC50 (CT26): 5.63 nM | IC50 (MC38): 9.57 nM | IC50 (L6; Rattus norvegicus, L6): 3.88 nM | IC50 (PC12; Rattus norvegicus, PC-12): 1.77 nM | in vitro killing activity (multiple cell lines): good in vitro killing activity | tumor cell inhibition effect compared with Dxd and SN38 (multiple cell lines): higher tumor cell inhibition effect than Dxd and SN38
